In the experiment the test system is SREBP pathway. Description: SREBP luciferase reporter gene system (SRE-luciferase assay). It is filed as cell-based, human. The note with it: Huh-7/SRE-luc cells, sterol-deficient medium, 0.01-10 µM. As to the method: Huh-7/SRE-luc cells were incubated in sterol-deficient medium (5% lipoprotein deficient serum, 2 µM lovastatin, 10 µM mevalonic acid) with corresponding concentrations of compounds for 16 hours. The Huh-7/SRE-luc cells were human hepatoma cell line Huh-7 stably expressing LDLR promotor-luciferase and green fluorescent protein (GFP). These cells were obtained by transfecting Huh-7 with pLDLR-promotor-luciferase and pEGFP-N1 plasmids, followed by screening under G418 antibiotic selection pressure. The Huh-7 cells were purchased from ATCC, the pLDLR-promotor-luciferase plasmid was obtained by molecular cloning methods, and the pEGFP-N1 plasmid was purchased from Addgene.
After compound treatment, the cells were lysed with lysis buffer (E397A, Promega). After the addition of luciferase substrate (E1500, Promega), the activity of SRE-driven luciferase was measured using a BioTek Synergy HTX microplate reader (including but not limited to this type of instrument). The fluorescence intensity of green fluorescent protein (EGFP) was also measured using the above BioTek microplate reader (including but not limited to this type of instrument) and served as an internal control. The ratio of SRE-driven luciferase activity divided by the fluorescence intensity of green fluorescent protein was used as an indicator of SREBP pathway activity. The test data for each test compound were analyzed using Prism software (with the DMSO-treated group as the reference to calculate the compound inhibition rate, fitted using the Prism log(inhibitor) vs. response--Variable slope (four-parameter) model, calculation formula: Y = Bottom + (Top - Bottom)/(1 + 10^((LogIC50 - X) × HillSlope))), to obtain the IC50 parameters of the compounds.
Using the method described in 1.1, the inhibitory effect of the compounds of the present disclosure on the SREBP pathway was tested. The concentration gradient for each compound was designed as 0.01, 0.03, 0.1, 0.3, 1.0, 3.0, and 10 µM, with the vehicle DMSO as the control.
(In general: A reporter such as luciferase makes a cellular process visible.)

Molecules are shown by their SMILES.

As for `COc1ccc(F)c(C(O)CCC[C@@H](C)[C@H]2CC[C@H]3[C@H]4[C@H](CC[C@]23C)[C@@]2(C)CC[C@H](O)[C@H](O)[C@@H]2CC4(F)F)c1` (single isomer, unassigned) [Compound 166, (1R,3aS,3bS,5aR,5aR,6R,7S,9aR,9bS,11aR) -4,4-difluoro-1-[(2R,6S)-6-(2-fluoro-5-methoxyphenyl)-6-hydroxyhexan-2-yl]-9a,11a-dimethylhexadecahydro-1H-cyclopenta[1,2-a]phenanthrene-6,7-diol or (1R,3aS,3bS,5aR,6R,7S,9aR,9bS,11aR)-4,4-difluoro-1-[(2R,6R)-6-(2-fluoro-5-methoxyphenyl)-6-hydroxyhexan-2-yl]-9a,11a-dimethylhexadecahydro-1H-cyclopenta[1,2-a]phenanthrene-6,7-diol], the half-maximal inhibitory concentration (IC50) (16 hours) turned out to be 0.138 µM.

`COc1ncc(F)cc1[C@H](O)CCC[C@@H](C)[C@H]1CC[C@H]2[C@H]3[C@H](CC[C@]12C)[C@@]1(C)CC[C@H](O)[C@H](O)[C@@H]1CC3(F)F` (single isomer, unassigned) [Compound 231]: where the note is “Homo sapiens, Huh-7, 16 h”, the half-maximal inhibitory concentration (IC50) came out at 0.062 µM.

Regarding `COc1ccc(C(O)CCC[C@@H](C)[C@H]2CC[C@H]3[C@H]4[C@H](CC[C@]23C)[C@@]2(C)CC[C@H](O)[C@H](O)[C@@H]2CC4(F)F)c(F)n1` (single isomer, unassigned) [Compound 242, (1R,3aS,3bS,5aR,6R,7S,9aR,9bS,11aR)-4,4-difluoro-1-[(2R,6S)-6-(2-fluoro-6-methoxypyridin-3-yl)-6-hydroxyhexan-2-yl]-9a,11a-dimethylhexadecahydro-1H-cyclopenta[1,2-a]phenanthrene-6,7-diol or (1R,3aS,3bS,5aR,6R,7S,9aR,9bS,11aR)-4,4-difluoro-1-[(2R,6R)-6-(2-fluoro-6-methoxypyridin-3-yl)-6-hydroxyhexan-2-yl]-9a,11a-dimethylhexadecahydro-1H-cyclopenta[1,2-a]phenanthrene-6,7-diol], the IC50 (16 hours) was found to be 0.205 µM.

As for `COc1nc(F)ccc1[C@@](C)(O)CCC[C@@H](C)[C@H]1CC[C@H]2[C@H]3[C@H](CC[C@]12C)[C@@]1(C)CC[C@H](O)[C@H](O)[C@@H]1CC3(F)F` [Compound 309, (1R,3aS,3bS,5aR,6R,7S,9aR,9bS,11aR)-4,4-difluoro-1-[(2R,6S)-6-(6-fluoro-2-methoxypyridin-3-yl)-6-hydroxyheptan-2-yl]-9a,11a-dimethylhexadecahydro-1H-cyclopenta[1,2-a]phenanthrene-6,7-diol], for the setting “Homo sapiens, Huh-7, 16 h”, the IC50 was 0.143 µM.

`COc1cc(F)c([C@@H](O)CCC[C@@H](C)[C@H]2CC[C@H]3[C@H]4[C@H](CC[C@]23C)[C@@]2(C)CC[C@H](O)[C@H](O)[C@@H]2CC4(F)F)c(F)n1` (single isomer, unassigned) [Compound 238]: the concentration for half-maximal inhibition (IC50) (Homo sapiens, Huh-7, 16 h) came out at 0.289 µM.

With `COc1ccccc1C(CCC[C@@H](C)[C@H]1CC[C@H]2[C@@H]3CC[C@H]4[C@@H](O)[C@@H](O)CC[C@]4(C)[C@H]3CC[C@]12C)OC` (stereo partly drawn) [Compound 22, 24-[methoxy(2-methoxyphenyl)methyl]-5α-cholane-3β,4β-diol], under “Homo sapiens, Huh-7, 16 h”, the concentration for half-maximal inhibition (IC50) was 2.01 µM.

For `COc1ccc(C(O)CCC[C@@H](C)[C@H]2CC[C@H]3[C@H]4[C@H](CC[C@]23C)[C@@]2(C)CC[C@H](O)[C@H](O)[C@@H]2CC4(F)F)c(OC)c1` (stereo partly drawn) [Compound 183, (1R,3aS,3bS,5aR,6R,7 S,9aR,9bS,11aR)-1-[(2R)-6-(2,4-Dimethoxyphenyl)-6-hydroxyhexan-2-yl]-4,4-difluoro-9a,11a-dimethylhexadecahydro-1H-cyclopenta[1,2-a]phenanthrene-6,7-diol], the half-maximal inhibitory concentration (IC50) (Homo sapiens, Huh-7, 16 h) was 0.141 µM.

With `C[C@H](CCCC(O)c1[nH]ncc1F)[C@H]1CC[C@H]2[C@H]3[C@H](CC[C@]12C)[C@@]1(C)CC[C@H](O)[C@H](O)[C@@H]1CC3(F)F` (stereo partly drawn) [Compound 237, (1R,3aS,3bS,5aR,6R,7S,9aR,9bS,11aR)-4,4-difluoro-1-[(2R)-6-(4-fluoro-2H-pyrazol-3-yl)-6-hydroxyhexan-2-yl]-9a,11a-dimethylhexadecahydro-1H-cyclopenta[1,2-a]phenanthrene-6,7-diol], where the note is “Homo sapiens, Huh-7, 16 h”, the 50% inhibitory concentration (IC50) is 0.726 µM.

For `C[C@H](CCC[C@@H](O)c1cccc2cnn(C)c12)[C@H]1CC[C@H]2C3=C(F)C[C@H]4[C@@H](O)[C@@H](O)CC[C@]4(C)[C@H]3CC[C@]12C` (single isomer, unassigned) [Compound 246], the half-maximal inhibitory concentration (IC50) (Homo sapiens, Huh-7, 16 h) stood at 0.139 µM.

As for `C[C@H](CCCC(O)c1ccccc1F)[C@H]1CC[C@H]2[C@H]3[C@H](CC[C@]12C)[C@@]1(C)CC[C@H](O)CC1CC3(F)F` (stereo partly drawn) [Compound 74, (1R,3aS,3bR,7S,9aS,9bS,11aR)-4,4-difluoro-1-[(2R)-6-(2-fluorophenyl)-6-hydroxyhexan-2-yl]-9a,11a-dimethylhexadecahydro-1H-cyclopenta[1,2-a]phenanthren-7-ol], for the setting “Homo sapiens, Huh-7, 16 h”, the IC50 came out at 0.68 µM.

`COc1cccc(OC)c1C(O)CCC[C@@H](C)[C@H]1CC[C@H]2C3=C(F)C[C@H]4[C@@H](O)[C@@H](O)CC[C@]4(C)[C@H]3CC[C@]12C` (stereo partly drawn) [Compound 115, (1R,3aR,5aR,6R,7S,9aR,9bR,11aR)-1-[(2R)-6-(2,6-dimethoxyphenyl)-6-hydroxyhexan-2-yl]-4-fluoro-9a,11a-dimethyl-2,3,3a,5,5a,6,7,8,9,9a,9b,10,11,11a-tetradecahydro-1H-cyclopenta[1,2-a]phenanthrene-6,7-diol]: the IC50 (Homo sapiens, Huh-7, 16 h) came out at 0.613 µM.

Regarding `COc1cccc(F)c1C(O)CCC[C@@H](C)[C@H]1CC[C@H]2[C@H]3[C@H](CC[C@]12C)[C@@]1(C)CC[C@H](O)C(=O)[C@@H]1CC3(F)F` (stereo partly drawn) [Compound 124, (1R,3aS,3bS,5aR,7S,9aR,9bS,11aR)-4,4-difluoro-1-[(2R)-6-(2-fluoro-6-methoxyphenyl)-6-hydroxyhexan-2-yl]-7-hydroxy-9a,11a-dimethylhexadecahydro-1H-cyclopenta[1,2-a]phenanthren-6-one], the IC50 (Homo sapiens, Huh-7, 16 h) was determined as 0.064 µM.

For the molecule `COc1ccc(C(O)CCC[C@@H](C)[C@H]2CC[C@H]3C4=C(F)C[C@H]5[C@@H](O)[C@@H](O)CC[C@]5(C)[C@H]4CC[C@]23C)cc1` (stereo partly drawn) [Compound 51, (1R,3aR,5aR,6R,7S,9aR,9bR,11aR)-4-fluoro-1-[(2R)-6-hydroxy-6-(4-methoxyphenyl)hexan-2-yl]-9a,11a-dimethyl-2,3,3a,5,5a,6,7,8,9,9a,9b,10,11,11a-tetradecahydro-1H-cyclopenta[1,2-a]phenanthrene-6,7-diol], under “Homo sapiens, Huh-7, 16 h”, the half-maximal inhibitory concentration (IC50) amounted to 0.212 µM.

Turning to `COc1ccnc(C[C@H](O)CCC[C@@H](C)[C@H]2CC[C@H]3[C@H]4[C@H](CC[C@]23C)[C@@]2(C)CC[C@H](O)[C@H](O)[C@@H]2CC4(F)F)c1` (stereo in doubt) [Compound 305, (1R,3aS,3bS,5aR,6R,7S,9aR,9bS,11aR)-4,4-difluoro-1-[(2R,6R)-6-hydroxy-7-(4-methoxypyridin-2-yl)heptan-2-yl]-9a,11a-dimethylhexadecahydro-1H-cyclopenta[1,2-a]phenanthrene-6,7-diol], the IC50 (Homo sapiens, Huh-7, 16 h) was 0.253 µM.

Consider `C[C@H](CCCC(O)c1cccnc1F)[C@H]1CC[C@H]2[C@H]3[C@H](CC[C@]12C)[C@@]1(C)CC[C@H](O)[C@H](O)[C@@H]1CC3(F)F` (stereo partly drawn) [Compound 80, (1R,3aS,3bS,5aR,6R,7S,9aR,9bS,11aR)-4,4-difluoro-1-[(2R)-6-(2-fluoropyridin-3-yl)-6-hydroxyhexan-2-yl]-9a,11a-dimethylhexadecahydro-1H-cyclopenta[1,2-a]phenanthrene-6,7-diol], for which the IC50 (Homo sapiens, Huh-7, 16 h) stood at 0.514 µM.

Regarding `C[C@H](CCCC(O)c1cccc2[nH]ncc12)[C@H]1CC[C@H]2[C@H]3[C@H](CC[C@]12C)[C@@]1(C)CC[C@H](O)[C@H](O)[C@@H]1CC3(F)F` (single isomer, unassigned) [Compound 274, (1R,3aS,3bS,5aR,6R,7S,9aR,9bS,11aR)-4,4-difluoro-1-[(2R,6R)-6-hydroxy-6-(1H-indazol-4-yl)hexan-2-yl]-9a,11a-dimethylhexadecahydro-1H-cyclopenta[1,2-a]phenanthrene-6,7-diol or (1R,3aS,3bS,5aR,6R,7S,9aR,9bS,11aR)-4,4-difluoro-1-[(2R,6S)-6-hydroxy-6-(1H-indazol-4-yl)hexan-2-yl]-9a,11a-dimethylhexadecahydro-1H-cyclopenta[1,2-a]phenanthrene-6,7-diol], for the setting “16 hours”, the IC50 amounted to 0.758 µM.

As to `C[C@H](CCCC(O)c1nccs1)[C@H]1CC[C@H]2C3=C(F)C[C@H]4[C@@H](O)[C@@H](O)CC[C@]4(C)[C@H]3CC[C@]12C` (stereo partly drawn) [Compound 90, (1R,3aR,5aR,6R,7S,9aR,9bR,11aR)-4-fluoro-1-[(2R)-6-hydroxy-6-(1,3-thiazol-2-yl)hexan-2-yl]-9a,11a-dimethyl-2,3,3a,5,5a,6,7,8,9,9a,9b,10,11,11a-tetradecahydro-1H-cyclopenta[1,2-a]phenanthrene-6,7-diol], the IC50 (Homo sapiens, Huh-7, 16 h) is 0.379 µM.

As for `C[C@H](CCC1CC(=NO)C1)[C@H]1CC[C@H]2[C@@H]3CC[C@H]4C[C@@H](O)CC[C@]4(C)[C@H]3CC[C@]12C` (stereo partly drawn) [Compound 135, {3-[(3R)-3-[(1R,3aS,3bR,5aS,7S,9aS,9bS,11aR)-7-hydroxy-9a,11a-dimethylhexadecahydro-1H-cyclopenta[1,2-a]phenanthren-1-yl]butyl]cyclobutylidene}hydroxylamine], the half-maximal inhibitory concentration (IC50) (Homo sapiens, Huh-7, 16 h) was determined as 4.03 µM.

In general, IC50 refers to the concentration at which inhibition is half-maximal.

Source of the values: patent EP4752152A1, “STEROID COMPOUND, AND PREPARATION METHOD THEREFOR AND USE THEREOF” (Cholesgen (Shanghai) Co.Ltd., priority 2023, dated 2025).
